Experimental data reported in patent EP3345917A1, “ANTIPROTOZOAL COMPOUNDS” (Bacoba AG, priority 2017, dated 2018).
Non-standard residues stand in square brackets, D forms with d. Residues, ends and D or L forms follow the SMILES beside them. *: point of attachment. Hexenoyl(2E,4S-Me) = CC[C@H](C)/C=C/C(=O)*; Leu(3R-OH) = CC(C)[C@@H](O)[C@H](N)C(=O)O; NHCH2CH2(piperidin-1-yl) = C1CCN(CCN*)CC1; X10 = O=C(c1ccccc1)[C@H]1CCCC[C@H]1C(=O)*; NH((S)CH(Me)CH2NMe2) = C[C@@H](CN(C)C)N*; NH(2-morpholinoethyl) = C(CN1CCOCC1)N*; Gly(octyl) = CCCCCCCC[C@H](N)C(=O)O; X11 = C[C@@H]1CN(CCN*)C[C@H](C)O1; hCha = N[C@@H](CCC1CCCCC1)C(=O)O; Hexanoyl = CCCCCC(=O)*; X1 = CN(C)C1CCC(N*)CC1; Aib = CC(C)(N)C(=O)O; βAla = NCCC(=O)O

Tests used:
[1] = system: Axenically grown Leishmania donovani amastigotes (strain MHOM/ET/67/L82); assay: Axenic Leishmania donovani amastigote resazurin assay; type: cell-based; conditions: In vitro inhibition, read-out: L.don. ax
Method in brief: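 Strain MHOM/ET/67/L82 amastigotes grown axenically and tested in triplicate by resazurin assay. Plates developed 2-4 hours, fluorescence read at 536 nm excitation/588 nm emission and expressed as percentage of negative control.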

[2] = system: intracellular Leishmania donovani (L.don. InMac); assay: Intracellular Leishmania donovani assay (L.don. InMac); type: cell-based; conditions: In vitro inhibition
From the text: (§1) Tests were done in triplicate.

[3] = system: Plasmodium falciparum; assay: 3H-hypoxanthine incorporation assay against Plasmodium falciparum; type: cell-based; conditions: In vitro inhibition, read-out: P.falc NF5
Experimental: as §1
IC50 values were calculated by linear interpolation.

[4] = Cytotoxicity assay on L6-cells (Alamar Blue); conditions: rat, Cytotox L6, Cytotoxicity against rat myoblast cells (L6)
Experimental: Tests were done in triplicate. IC50 values against the parasites as well as cytotoxic effects against rat myoblast (L6-cells) were determined by serial dilution and repeated twice.
After 68 h of incubation under humidified 5% CO2 atmosphere, 10 µl of the Alamar blue marker was added to all wells. The plates were incubated for an additional 2 h. […] The IC50S were calculated by Softmax Pro software (Molecular Devices Cooperation, Sunnyvale, CA). […] Cytotoxicity was measured against rat myoblast cells (Cytotox L6).

[5] = system: Trypanosoma brucei rhodesiense (STIB 900 strain); assay: Alamar Blue assay against Trypanosoma brucei rhodesiense grown in axenic medium; type: cell-based; conditions: In vitro inhibition, read-out: T.b.rhod.
Method in brief: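 T. b. rhodesiense STIB 900 cultured in axenic medium and exposed to samples in an Alamar Blue viability assay, run in triplicate. IC50 calculated from the readout; melarsoprol served as reference drug.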

[6] = system: Trypanosoma cruzi trypomastigote forms (Tulahuen strain); assay: Intracellular Trypanosoma cruzi assay in L6-cells, beta-galactosidase/CPRG readout; type: cell-based; conditions: In vitro inhibition, read-out: T.cruzi.
Method in brief: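 L6 rat myoblasts infected with Tulahuen C2C4 LacZ T. cruzi; after incubation, CPRG/Nonidet substrate added and colour developed 2–6 h. Absorbance at 540 nm; IC50 calculated; triplicate tests.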

Structure (SMILES)	IC50 [1] [nM]	IC50 [2] [nM]	IC50 [3] [nM]	IC50 at 70 h [4] [nM]	IC50 [5] [nM]	IC50 [6] [nM]
CCCCCCCC[C@H](NC(=O)[C@@H]1CCCN1C(=O)CCCCC)C(=O)N[C@@H](CC(C)C)C(=O)NC(C)(C)C(=O)N[C@@H](CC(C)C)C(=O)N[C@@H](CC(C)C)C(=O)NC(C)(C)C(=O)NC(C)(C)C(=O)NCCC(=O)NC1CCC(N(C)C)CC1 (stereo partly drawn) [Compound 5881, (2S)-N-[(1S)-1-[(1-{[(1S)-1-{[(1S)-1-{[1-({1-[(2-{[4-(dimethylamino)cyclohexyl]carbamoyl}ethyl)carbamoyl]-1-methylethyl}carbamoyl)-1-methylethyl]carbamoyl}-3-methylbutyl]carbamoyl}-3-methylbutyl]carbamoyl}-1-methylethyl)carbamoyl]-3-methylbutyl]-2-{[(2S)-1-hexanoylpyrrolidin-2-yl]formamido}decanamide] (Hexanoyl-P[Gly(octyl)]L[Aib]LL[Aib][Aib][βAla]-X1)	0.7	42500	0.2	592	44200	44
CCCCCCCC[C@H](NC(=O)[C@@H]1CCCN1C(C)=O)C(=O)N[C@@H](CC(C)C)C(=O)NC(C)(C)C(=O)N[C@@H](CC(C)C)C(=O)N[C@@H](CC(C)C)C(=O)NC(C)(C)C(=O)NC(C)(C)C(=O)NCCC(=O)N[C@@H](C)CN(C)C [Compound 5638, (2S)-2-{[(2S)-1-acetylpyrrolidin-2-yl]formamido}-N-[(1S)-1-[(1-{[(1S)-1-{[(1S)-1-{[1-({1-[(2-{[(2S)-1-(dimethylamino)propan-2-yl]carbamoyl}ethyl)carbamoyl]-1-methylethyl}carbamoyl)-1-methylethyl]carbamoyl}-3-methylbutyl]carbamoyl}-3-methylbutyl]carbamoyl}-1-methylethyl)carbamoyl]-3-methylbutyl]decanamide] (Ac-P[Gly(octyl)]L[Aib]LL[Aib][Aib][βAla]-{NH((S)CH(Me)CH2NMe2)})	7	224	0.6	634	0.4	98.5
CCCCCCCC[C@H](NC(=O)[C@@H]1CCCN1C(=O)CCCCC)C(=O)N[C@H](C(=O)NC(C)(C)C(=O)N[C@@H](CC(C)C)C(=O)N[C@@H](CC(C)C)C(=O)NC(C)(C)C(=O)NC(C)(C)C(=O)NCCC(=O)N[C@@H](C)CN(C)C)[C@H](O)C(C)C [Compound 5517, (2S)-N-[(1S,2R)-1-[(1-{[(1S)-1-{[(1S)-1-{[1-({1-[(2-{[(2S)-1-(dimethylamino)propan-2-yl]carbamoyl}ethyl)carbamoyl]-1-methylethyl}carbamoyl)-1-methylethyl]carbamoyl}-3-methylbutyl]carbamoyl}-3-methylbutyl]carbamoyl}-1-methylethyl)carbamoyl]-2-hydroxy-3-methylbutyl]-2-{[(2S)-1-hexanoylpyrrolidin-2-yl]formamido}decanamide] (Hexanoyl-P[Gly(octyl)][Leu(3R-OH)][Aib]LL[Aib][Aib][βAla]-{NH((S)CH(Me)CH2NMe2)})	0.9	142	1.1	338	0.1	45.3
CCCCCC(=O)N1CCC[C@H]1C(=O)N[C@@H](CCC1CCCCC1)C(=O)N[C@@H](CC(C)C)C(=O)NC(C)(C)C(=O)N[C@@H](CC(C)C)C(=O)N[C@@H](CC(C)C)C(=O)NC(C)(C)C(=O)NC(C)(C)C(=O)NCCC(=O)N[C@@H](C)CN(C)C [Compound 5942, (2S)-2-[(2S)-4-cyclohexyl-2-{[(2S)-1-hexanoylpyrrolidin-2-yl]formamido}butanamido]-N-(1-{[(1S)-1-{[(1S)-1-{[1-({1-[(2-{[(2S)-1-(dimethylamino)propan-2-yl]carbamoyl}ethyl)carbamoyl]-1-methylethyl}carbamoyl)-1-methylethyl]carbamoyl}-3-methylbutyl]carbamoyl}-3-methylbutyl]carbamoyl}-1-methylethyl)-4-methylpentanamide] (Hexanoyl-P[hCha]L[Aib]LL[Aib][Aib][βAla]-{NH((S)CH(Me)CH2NMe2)})	42600	< 35.4	0.9	148	0.3	4
CCCCCCCC[C@H](NC(=O)[C@@H]1CCCN1C(=O)CCCCC)C(=O)N[C@@H](CC(C)C)C(=O)NC(C)(C)C(=O)N[C@@H](CC(C)C)C(=O)N[C@@H](CC(C)C)C(=O)NC(C)(C)C(=O)NC(C)(C)C(=O)NCCC(=O)NCCN1CCCCC1 [Compound 5647, (2S)-2-{[(2S)-1-hexanoylpyrrolidin-2-yl]formamido}-N-[(1S)-3-methyl-1-[(1-methyl-1-{[(1S)-3-methyl-1-{[(1S)-3-methyl-1-{[1-methyl-1-({1-methyl-1-[(2-{[2-(piperidin-1-yl)ethyl]carbamoyl}ethyl)carbamoyl]ethyl}carbamoyl)ethyl]carbamoyl}butyl]carbamoyl}butyl]carbamoyl}ethyl)carbamoyl]butyl]decanamide] (Hexanoyl-P[Gly(octyl)]L[Aib]LL[Aib][Aib][βAla]-{NHCH2CH2(piperidin-1-yl)})	3	62.1	0.6	182	3.6	13.4
CCCCCCCC[C@H](NC(=O)[C@@H]1CCCN1C(=O)CCCCC)C(=O)N[C@@H](CC(C)C)C(=O)NC(C)(C)C(=O)N[C@@H](CC(C)C)C(=O)N[C@@H](CC(C)C)C(=O)NC(C)(C)C(=O)NC(C)(C)C(=O)NCCC(=O)N[C@@H](C)CN(C)C [Compound 5632, (2S)-N-[(1S)-1-[(1-{[(1S)-1-{[(1S)-1-{[1-({1-[(2-{[(2S)-1-(dimethylamino)propan-2-yl]carbamoyl}ethyl)carbamoyl]-1-methylethyl}carbamoyl)-1-methylethyl]carbamoyl}-3-methylbutyl]carbamoyl}-3-methylbutyl]carbamoyl}-1-methylethyl)carbamoyl]-3-methylbutyl]-2-{[(2S)-1-hexanoylpyrrolidin-2-yl]formamido}decanamide] (Hexanoyl-P[Gly(octyl)]L[Aib]LL[Aib][Aib][βAla]-{NH((S)CH(Me)CH2NMe2)})	1.3	52.1	0.1	162	0.4	10.2
CCCCCCCC[C@H](NC(=O)[C@@H]1CCCN1C(=O)/C=C/[C@@H](C)CC)C(=O)N[C@H](C(=O)NC(C)(C)C(=O)N[C@@H](CC(C)C)C(=O)N[C@@H](CC(C)C)C(=O)NC(C)(C)C(=O)NC(C)(C)C(=O)NCCC(=O)NCCN1CCOCC1)[C@H](O)C(C)C [Compound 5569, (2S)-N-[(1S,2R)-2-hydroxy-3-methyl-1-[(1-methyl-1-{[(1S)-3-methyl-1-{[(1S)-3-methyl-1-{[1-methyl-1-({1-methyl-1-[(2-{[2-(morpholin-4-yl)ethyl]carbamoyl}ethyl)carbamoyl]ethyl}carbamoyl)ethyl]carbamoyl}butyl]carbamoyl}butyl]carbamoyl}ethyl)carbamoyl]butyl]-2-{[(2S)-1-[(2E,4S)-4-methylhex-2-enoyl]pyrrolidin-2-yl]formamido}decanamide] ({Hexenoyl(2E,4S-Me)}-P[Gly(octyl)][Leu(3R-OH)][Aib]LL[Aib][Aib][βAla]-{NH(2-morpholinoethyl)})	3.8	107	17.9	2420	1.7	143
CCCCCCCC[C@H](NC(=O)[C@@H]1CCCN1C(=O)CCCCC)C(=O)N[C@@H](CC(C)C)C(=O)NC(C)(C)C(=O)N[C@@H](CC(C)C)C(=O)N[C@@H](CC(C)C)C(=O)NC(C)(C)C(=O)NC(C)(C)C(=O)NCCC(=O)NCCN1C[C@@H](C)O[C@@H](C)C1 [Compound 5648, (2S)-N-[(1S)-1-[(1-{[(1S)-1-{[(1S)-1-({1-[(1-{[2-({2-[(2R,6S)-2,6-dimethylmorpholin-4-yl]ethyl}carbamoyl)ethyl]carbamoyl}-1-methylethyl)carbamoyl]-1-methylethyl}carbamoyl)-3-methylbutyl]carbamoyl}-3-methylbutyl]carbamoyl}-1-methylethyl)carbamoyl]-3-methylbutyl]-2-{[(2S)-1-hexanoylpyrrolidin-2-yl]formamido}decanamide] (Hexanoyl-P[Gly(octyl)]L[Aib]LL[Aib][Aib][βAla]-X11)	0.5	186	26.9	2280	54.7	229
CCCCCCCC[C@H](NC(=O)[C@@H]1CCCC[C@@H]1C(=O)c1ccccc1)C(=O)N[C@@H](CC(C)C)C(=O)NC(C)(C)C(=O)N[C@@H](CC(C)C)C(=O)N[C@@H](CC(C)C)C(=O)NC(C)(C)C(=O)NC(C)(C)C(=O)NCCC(=O)N[C@@H](C)CN(C)C [Compound 5945, (2S)-2-{[(1R,2S)-2-benzoylcyclohexyl]formamido}-N-[(1S)-1-[(1-{[(1S)-1-{[(1S)-1-{[1-({1-[(2-{[(2S)-1-(dimethylamino)propan-2-yl]carbamoyl}ethyl)carbamoyl]-1-methylethyl}carbamoyl)-1-methylethyl]carbamoyl}-3-methylbutyl]carbamoyl}-3-methylbutyl]carbamoyl}-1-methylethyl)carbamoyl]-3-methylbutyl]decanamide] (X10-[Gly(octyl)]L[Aib]LL[Aib][Aib][βAla]-{NH((S)CH(Me)CH2NMe2)})	42700	< 34.7	42600	144	0.4	34.3
